Test results from patent US5705487A, “Antithrombotic agents” (priority 1995, dated 1998).
Structures can show the parent of a compound that is named as a salt.

Key:
Format in all cases: biochemical
[1] = molecular target: Human Thrombin (Homo sapiens, UniProt P00734); assay: Inhibition of the amidase activity of thrombin (Kass); details: chromogenic substrate N-benzoyl-Phe-Val-Arg-p-nitroanilide; mean over range of concentrations
[2] = system: Human Plasma; assay: Human plasma anticoagulation, thrombin time (TT); details: concentration required to double the clotting time
Method: (§1) Dog plasma and rat plasma is obtained from conscious mixed-breed hounds (either sex, Hazelton-LRE, Kalamazoo, Mich., U.S.A.) or from anesthetized male Sprague-Dawley rats (Harlan Sprague-Dawley, Inc., Indianapolis, Ind., U.S.A.) by venipuncture into 3.8 percent citrate. Fibrinogen is prepared from in-date ACD human blood as the fraction I-2 according to previous procedures and specifications. […] Human fibrinogen is also purchased as 98 percent pure/plasmin free from American Diagnostica, Greenwich, Conn. Coagulation reagents ACTIN, Thromboplastin, and Human plasma are from Baxter Healthcare Corp., Dade Division, Miami, Fla. Bovine thrombin from Parke-Davis ([…], Mich.) is used for coagulation assays in plasma.
(§2) Coagulation assay procedures are as previously described. […] A CoAScreener coagulation instrument (American LABor, Inc.) is used for all coagulation assay measurements. The prothrombin time (PT) is measured by adding 0.05 mL saline and 0.05 mL Thromboplastin-C reagent to 0.05 mL test plasma. The activated partial thromboplastin time (APTT) is measured by incubation of 0.05 mL test plasma with 0.05 mL Actin reagent for 120 seconds followed by 0.05 mL CaCl2 (0.02M). The thrombin time (TT) is measured by adding 0.05 mL saline and 0.05 mL thrombin (10 NIH units/mL) to 0.05 mL test plasma. The compounds of Formula I are added to human or animal plasma over a wide range of concentrations to determine prolongation effects on the APTT, PT, and TT assays. Linear extrapolations are performed to estimate the concentrations required to double the clotting time for each assay.

[3] = system: Human Plasma; assay: Human plasma anticoagulation, prothrombin time (PT); details: concentration required to double the clotting time
Method: as §1, §2

[4] = system: Human Plasma; assay: Human plasma anticoagulation, activated partial thromboplastin time (APTT); details: concentration required to double the clotting time
Method: as §1, §2

[5] = molecular target: T1, factor Xa (Homo sapiens, UniProt P00742); assay: Kass, factor Xa chromogenic substrate assay; details: substrate N-Benzoyl-Ile-Glu-Gly-Arg-p-nitroanilide
T1 construct: Human factors X, Xa, IXa, XIa, and XIIa are purchased; purchased Enzyme Research Laboratories, South Bend, Ind
T1 sequence (P00742 235-488 limits assumed): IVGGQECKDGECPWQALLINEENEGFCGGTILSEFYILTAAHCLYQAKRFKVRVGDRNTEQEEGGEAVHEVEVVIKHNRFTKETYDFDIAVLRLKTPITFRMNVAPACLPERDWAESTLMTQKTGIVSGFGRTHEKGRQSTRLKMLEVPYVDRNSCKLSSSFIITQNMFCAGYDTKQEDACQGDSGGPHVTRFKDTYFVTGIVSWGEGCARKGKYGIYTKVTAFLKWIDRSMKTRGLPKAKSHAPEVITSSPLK
T1 sequence (P00742 41-179 partner limits assumed): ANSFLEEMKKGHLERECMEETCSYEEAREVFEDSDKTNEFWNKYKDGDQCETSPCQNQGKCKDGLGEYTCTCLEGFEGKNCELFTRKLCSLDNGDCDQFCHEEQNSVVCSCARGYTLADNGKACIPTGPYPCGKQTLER

[6] = molecular target: T2, Human plasmin (Homo sapiens, UniProt P00747); assay: Kass, plasmin chromogenic substrate assay; details: substrate H-D-Val-Leu-Lys-p-nitroanilide
T2 construct: Human plasmin is purchased from Boehringer Mannheim; purchased Boehringer Mannheim, Indianapolis, Ind
T2 sequence (P00747 581-810 limits assumed): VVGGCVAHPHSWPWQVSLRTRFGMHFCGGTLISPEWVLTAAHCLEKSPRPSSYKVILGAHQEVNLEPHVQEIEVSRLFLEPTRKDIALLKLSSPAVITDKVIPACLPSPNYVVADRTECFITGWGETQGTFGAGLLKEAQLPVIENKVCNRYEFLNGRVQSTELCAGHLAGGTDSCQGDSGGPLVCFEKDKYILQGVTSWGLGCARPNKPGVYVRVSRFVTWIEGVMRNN
T2 sequence (P00747 97-580 partner limits assumed): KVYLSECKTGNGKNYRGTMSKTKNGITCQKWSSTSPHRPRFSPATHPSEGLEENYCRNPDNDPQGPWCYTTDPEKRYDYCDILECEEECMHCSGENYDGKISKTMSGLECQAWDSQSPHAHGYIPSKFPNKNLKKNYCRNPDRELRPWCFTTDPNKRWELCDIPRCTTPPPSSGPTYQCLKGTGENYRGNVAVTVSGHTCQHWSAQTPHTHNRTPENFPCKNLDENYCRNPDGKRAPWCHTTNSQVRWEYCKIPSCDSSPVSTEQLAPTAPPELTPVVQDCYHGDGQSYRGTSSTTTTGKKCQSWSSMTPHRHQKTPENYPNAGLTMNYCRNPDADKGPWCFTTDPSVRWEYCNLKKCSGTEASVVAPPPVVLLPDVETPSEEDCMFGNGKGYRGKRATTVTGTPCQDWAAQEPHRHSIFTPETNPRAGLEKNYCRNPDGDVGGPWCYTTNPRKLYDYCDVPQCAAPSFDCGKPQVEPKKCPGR

[7] = molecular target: T3, Bovine trypsin (Bos taurus, UniProt P00760); assay: Kass, trypsin chromogenic substrate assay; details: substrate N-Benzoyl-Phe-Val-Arg-p-nitroanilide
T3 construct: Bovine trypsin is purchased from Worthington Biochemicals; purchased Worthington Biochemicals, Freehold, N.J
T3 sequence (P00760 24-246): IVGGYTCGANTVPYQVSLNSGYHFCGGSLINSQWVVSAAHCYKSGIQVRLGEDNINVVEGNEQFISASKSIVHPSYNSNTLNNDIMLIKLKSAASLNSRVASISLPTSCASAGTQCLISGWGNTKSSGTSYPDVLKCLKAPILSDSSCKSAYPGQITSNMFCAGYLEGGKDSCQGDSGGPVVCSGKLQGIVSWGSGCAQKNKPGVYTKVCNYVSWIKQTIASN

[8] = molecular target: T4, t-PA (Homo sapiens, UniProt P00750); assay: Kass, t-PA chromogenic substrate assay; details: substrate H-D-Ile-Pro-Arg-p-nitroanilide
T4 construct: purchased American Diagnostica, Greenwich, Conn
T4 sequence (P00750 36-562): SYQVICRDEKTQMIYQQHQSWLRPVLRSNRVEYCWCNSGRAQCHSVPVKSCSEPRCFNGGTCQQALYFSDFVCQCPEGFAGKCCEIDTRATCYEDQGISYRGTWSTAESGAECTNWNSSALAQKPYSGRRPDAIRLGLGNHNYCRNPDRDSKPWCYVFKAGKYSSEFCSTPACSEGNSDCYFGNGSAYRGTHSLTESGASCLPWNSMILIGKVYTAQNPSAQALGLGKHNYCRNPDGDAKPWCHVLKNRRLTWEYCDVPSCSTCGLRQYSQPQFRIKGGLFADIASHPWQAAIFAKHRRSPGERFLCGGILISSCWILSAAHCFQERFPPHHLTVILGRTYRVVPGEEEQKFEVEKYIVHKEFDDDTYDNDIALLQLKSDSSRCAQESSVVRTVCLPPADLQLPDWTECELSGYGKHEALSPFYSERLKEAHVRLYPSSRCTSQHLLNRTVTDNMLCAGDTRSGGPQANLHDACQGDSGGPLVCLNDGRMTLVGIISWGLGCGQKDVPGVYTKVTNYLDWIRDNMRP

Compound	Kass × 10^6 (L/mole) Human Thrombin [1]	Kass × 10^6 (L/mole) Xa [5]	Kass × 10^6 (L/mole) Plasmin [6]	Kass × 10^6 (L/mole) Trypsin [7]	Kass × 10^6 (L/mole) t-PA [8]	Human Plasma Anticoagulation 2x Clotting time TT [2]	Human Plasma Anticoagulation 2x Clotting time PT [3]	Human Plasma Anticoagulation 2x Clotting time APTT [4]
Cl.N=C(N)c1ccc(CNC(=O)CN(CCc2ccccc2)C(=O)CNCC(=O)O)cc1 [Example 89, HOOCCH2 -Gly-N-C6 H5 CH2 CH2 Gly-p-NHCH2 C6 H4 C(NH)NH2.HCl]	0.14 × 10^6 L/mole	0.071 × 10^6 L/mole	–	–	–	570 ng/mL	37,000 ng/mL	51,000 ng/mL
CCS(=O)(=O)N[C@H](Cc1ccccc1)C(=O)N1CCC[C@H]1C(=O)NCCc1cccc(N=C(N)N)c1.Cl [Example 37, EtSO2 -D-Phe-Pro-m-NHCH2 CH2 C6 H4 NHC(NH)NH2.HCl]	0.02 × 10^6 L/mole	< 0.009 × 10^6 L/mole	–	–	–	> 9,000 ng/mL	> 9,000 ng/mL	> 9,000 ng/mL
N=C(N)Nc1cccc(CCNC(=O)[C@@H]2CCCN2C(=O)[C@@H]2NCC[C@@H]3CCCC[C@@H]32)c1 [Example 41, D-1-Piq-Pro-m-NHCH2 CH2 C6 H4 NHC(NH)NH2.2HCl]	0.01 × 10^6 L/mole	< 0.001 × 10^6 L/mole	< 0.001 × 10^6 L/mole	< 0.001 × 10^6 L/mole	–	82,200 ng/mL	> 91,000 ng/mL	> 91,000 ng/mL
O=C(O)CN[C@H](CC1CCCCC1)C(=O)N1CCC[C@H]1C(=O)NCC1CCNCC1 [Example 53, HO2 CCH2 -D-Cha-Pro-4-NHCH2 -piperidine.HCl]	–	–	< 0.001 × 10^6 L/mole	–	< 0.001 × 10^6 L/mole	–	–	–
Cl.Nc1cc(CCNC(=O)[C@@H]2CCCN2C(=O)[C@@H](CC2CCCCC2)NCC(=O)O)ccn1 [Example 76, HO2 CCH2 -D-Cha-Pro-4-NHCH2 CH2 -2-aminopyridine.HCl]	12 × 10^6 L/mole	–	–	0.36 × 10^6 L/mole	–	29 ng/mL	560 ng/mL	490 ng/mL
NCc1ccc(CNC(=O)[C@@H]2CCCN2C(=O)[C@@H](CC2CCCCC2)NCC(=O)O)cc1 [Example 78, HO2 CCH2 -D-Cha-Pro-4-NHCH2 C6 H4 CH2 NH2.HCl]	11 × 10^6 L/mole	–	–	8.6 × 10^6 L/mole	–	46 ng/mL	760 ng/mL	430 ng/mL
Cl.N=C(N)N1CC=C(CNC(=O)[C@@H]2CCCN2C(=O)[C@@H](CC2CCCCC2)NCC(=O)O)CC1 [Example 70, HO2 CCH2 -D-Cha-Pro-4-NHCH2 -1-amidino-3,4-dehydro-piperidine.HCl]	430 × 10^6 L/mole	–	–	9.8 × 10^6 L/mole	–	2 ng/mL	180 ng/mL	160 ng/mL
HOOCCH2 -D-hPhe-Pro-p-NHCH2 C6 H4 C(NH)NH2.HCl [Example 87]	30 × 10^6 L/mole	2.5 × 10^6 L/mole	–	–	–	9 ng/mL	310 ng/mL	260 ng/mL
CCS(=O)(=O)N[C@H](CC1CCCCC1)C(=O)N1CCC[C@H]1C(=O)NCc1ccc(CN)cc1 [Example 81, EtSO2 -D-Cha-Pro-4-NHCH2 C6 H4 CH2 NH2.HCl]	5.3 × 10^6 L/mole	–	–	2.1 × 10^6 L/mole	–	110 ng/mL	2,700 ng/mL	1,500 ng/mL

More lines, main results first:

Kass × 10^6 (L/mole) Human Thrombin [1]	Kass × 10^6 (L/mole) Xa [5]	Kass × 10^6 (L/mole) Plasmin [6]	Kass × 10^6 (L/mole) Trypsin [7]	Kass × 10^6 (L/mole) t-PA [8]	Compound	Human Plasma Anticoagulation 2x Clotting time TT [2]	Human Plasma Anticoagulation 2x Clotting time PT [3]	Human Plasma Anticoagulation 2x Clotting time APTT [4]
15 × 10^6 L/mole	0.01 × 10^6 L/mole	–	–	–	Cl.Nc1ccc(CNC(=O)[C@@H]2CCCN2C(=O)[C@@H](CC2CCCCC2)NCC(=O)O)c(F)c1 [Example 64, HO2 CCH2 -D-Cha-Pro-4-NHCH2 -3-F-C6 H3 NH2.HCl]	23 ng/mL	650 ng/mL	900 ng/mL
1.1 × 10^6 L/mole	< 0.001 × 10^6 L/mole	< 0.001 × 10^6 L/mole	0.07 × 10^6 L/mole	–	N=C(N)Nc1ccc(CNC(=O)[C@@H]2CCCN2C(=O)[C@@H]2NCC[C@@H]3CCCC[C@@H]32)cc1 [Example 38, D-1-Piq-Pro-p-NHCH2 C6 H4 NHC(NH)NH2.2HCl]	540 ng/mL	11,100 ng/mL	6,100 ng/mL
0.03 × 10^6 L/mole	< 0.001 × 10^6 L/mole	< 0.001 × 10^6 L/mole	0.01 × 10^6 L/mole	–	N=C(N)Nc1cccc(CNC(=O)[C@@H]2CCCN2C(=O)[C@@H]2NCC[C@@H]3CCCC[C@@H]32)c1 [Example 40, D-1-Piq-Pro-m-NHCH2 C6 H4 NHC(NH)NH2.2HCl]	35,100 ng/mL	> 91,000 ng/mL	> 91,000 ng/mL
3.6 × 10^6 L/mole	0.007 × 10^6 L/mole	–	–	–	CCC(CC)C(=O)N[C@@H](CCS(C)(=O)=O)C(=O)N1CCC[C@H]1C(=O)NCc1ccc(C(=N)N)cc1 [Example 91, (C2 H5)2 CHCO-Met(O2)-Pro-p-NHCH2 C6 H4 C(NH)NH2.HCl]	63 ng/mL	3,500 ng/mL	3,000 ng/mL
410 × 10^6 L/mole	3.9 × 10^6 L/mole	–	–	–	N=C(N)c1ccc(CNC(=O)[C@@H]2CCCN2C(=O)[C@@H](CCC2CCCCC2)NCC(=O)O)cc1 [Example 88, HOOCCH2 -D-hCha-Pro-p-NHCH2 C6 H4 C(NH)NH2.HCl]	4 ng/mL	200 ng/mL	100 ng/mL
–	–	< 0.001 × 10^6 L/mole	–	< 0.001 × 10^6 L/mole	CCS(=O)(=O)N[C@H](Cc1ccccc1)C(=O)N1CCC[C@H]1C(=O)NCc1cccc(C(=N)N)c1 [Example 24, EtSO2 -D-Phe-Pro-m-NHCH2 -C6 H4 C(=NH)NH2.HCl]	–	–	–
0.12 × 10^6 L/mole	< 0.001 × 10^6 L/mole	< 0.001 × 10^6 L/mole	< 0.02 × 10^6 L/mole	–	N=C(N)Nc1ccc(CCNC(=O)[C@@H]2CCCN2C(=O)[C@@H]2NCC[C@@H]3CCCC[C@@H]32)cc1 [Example 39, D-1-Piq-Pro-p-NHCH2 CH2 C6 H4 NHC (NH) NH2.2HCl]	5,300 ng/mL	78,600 ng/mL	69,200 ng/mL
2.0 × 10^6 L/mole	–	–	0.24 × 10^6 L/mole	–	NCC1CCC(CNC(=O)[C@@H]2CCCN2C(=O)[C@@H](CC2CCCCC2)NCC(=O)O)CC1 (stereo partly drawn) [Example 79, HO2 CCH2 -D-Cha-Pro-4-NHCH2 C6 H10 CH2 NH2.HCl]	140 ng/mL	2,400 ng/mL	1,700 ng/mL
–	–	–	–	< 0.001 × 10^6 L/mole	N=C(N)NCc1ccc(CNC(=O)[C@@H]2CCCN2C(=O)[C@H](N)Cc2ccccc2)cc1 [Example 9, D-Phe-Pro-p-NHCH2 -C6 H4 CH2 NHC(NH)NH2.2TFA]	–	–	–
